Source: article PMC3795266, “Nitrogen Oxyanion-dependent Dissociation of a Two-component Complex That Regulates Bacterial Nitrate Assimilation” (The Journal of Biological Chemistry, 2013)

How the values were obtained:
NasS-NasT = target: T1, NasS-NasT (Paracoccus denitrificans, UniProt A1BAH4); experiment: intrinsic tryptophan fluorescence quench (ex […] nm, em […] nm); assay type: binding; settings: read-out: KD^app
T1 construct: gene Pden_4454; co-expressed from pET-24a/nasTS in E. coli BL21(DE3); N-terminal His6-tag on NasT (tag kept), NasS untagged; NasS ~42 kDa, NasT ~22 kDa; heterotetramer ~132 kDa (two NasS, two NasT); with Response regulator NasT, ANTAR domain-containing positive regulator
T1 sequence (A1BAH4 1-390): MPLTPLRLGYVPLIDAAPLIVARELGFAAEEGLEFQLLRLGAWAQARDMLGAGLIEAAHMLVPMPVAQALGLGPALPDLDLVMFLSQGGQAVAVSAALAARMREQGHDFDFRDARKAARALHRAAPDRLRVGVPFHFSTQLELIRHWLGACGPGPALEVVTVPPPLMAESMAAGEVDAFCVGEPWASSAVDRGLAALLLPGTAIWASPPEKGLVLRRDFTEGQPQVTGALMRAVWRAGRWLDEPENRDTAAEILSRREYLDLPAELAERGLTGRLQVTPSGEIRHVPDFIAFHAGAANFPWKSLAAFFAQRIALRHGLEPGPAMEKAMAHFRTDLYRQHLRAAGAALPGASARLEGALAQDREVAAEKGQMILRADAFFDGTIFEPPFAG
T1 sequence (A1BAH5 1-196 partner): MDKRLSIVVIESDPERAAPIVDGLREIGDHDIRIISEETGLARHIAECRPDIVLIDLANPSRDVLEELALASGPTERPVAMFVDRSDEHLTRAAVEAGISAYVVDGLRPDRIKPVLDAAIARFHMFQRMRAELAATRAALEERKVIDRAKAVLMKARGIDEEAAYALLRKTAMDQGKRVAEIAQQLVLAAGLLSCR

[1] = target: NasT (His-tagged recombinant P. denitrificans NasT) (Paracoccus denitrificans PD1222); experiment: SEC; analytical Superdex 200 HR 10/30, equilibration buffer supplemented with 1 mM NO3-; fractions analysed by SDS-PAGE
[2] = target: NasT (His-tagged recombinant P. denitrificans NasT) (Paracoccus denitrificans PD1222); experiment: AUC; sedimentation equilibrium of the purified complex, no NO3-; 50 mM NaHEPES, 100 mM NaCl, pH 7.5; 7.5, 12 and 16 krpm; 10 uM protein; ideal one-component fit

O=[N+]([O-])O [NO3^−]
Kd (NasS-NasT): 15 ± 2 µM

NasT (His-tagged recombinant P. denitrificans NasT) (natural protein)
stoichiometry N [1]: 6 monomers

NasS (recombinant P. denitrificans NasS) (natural protein)
stoichiometry N (NasS per NasT (2:2)) [2]: 1

O=NO [NO2^−]
Kd (NasS-NasT): 94 ± 12 µM
